Results published in BindingDB's records for doi:10.1021/acs.jmedchem.7b00901 (University of South Australia, 2018).

Target: Cyclin-dependent kinase inhibitor 1 (Homo sapiens, UniProt P38936)
Test: Inhibition of p21 (unknown origin)-induced transcription in human HT1080 p21-9-CMV-GFP cells after 3 days by fluorescence assay

Chain of Cyclin-dependent kinase inhibitor 1 (P38936 whole entry): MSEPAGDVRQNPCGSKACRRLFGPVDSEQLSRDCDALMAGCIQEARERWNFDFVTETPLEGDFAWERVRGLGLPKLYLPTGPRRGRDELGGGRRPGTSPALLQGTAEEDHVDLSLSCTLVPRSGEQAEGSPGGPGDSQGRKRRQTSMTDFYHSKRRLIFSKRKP

IC50: 0.64 µM
Structure (SMILES): N#Cc1ccc2ncnc(NCCc3ccccc3)c2c1
